# From PubChem BioAssay (NCI)
#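 Values below derive from 48-hour exposures of cells grown in 96-well plates, with endpoints linearly interpolated between the two concentrations bracketing the appropriate inhibition level. GI50 marks 50% less growth. TGI denotes the concentration required for complete inhibition of growth.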
# What was measured:
# Test in all cases: NCI tumour cell line growth inhibition, 48 h
# [1] = system: MALME-3M melanoma
# [2] = system: HCC-2998 colon
# [3] = system: HS 578T breast
# [4] = system: SNB-75 CNS
# [5] = system: M14 melanoma
# [6] = system: EKVX NSCLC
# [7] = system: RPMI-8226 leukemia
# [8] = system: IGROV1 ovarian
# [9] = system: COLO 205 colon
# [10] = system: T-47D breast
# [11] = system: MDA-MB-231 breast
# [12] = system: TK-10 renal
# [13] = system: SK-MEL-28 melanoma
# [14] = system: SNB-19 CNS
# [15] = system: UACC-257 melanoma
# [16] = system: CAKI-1 renal
# [17] = system: SK-MEL-2 melanoma
# [18] = system: DU-145 prostate
# [19] = system: OVCAR-3 ovarian
# [20] = system: RXF 393 renal
# [21] = system: SF-539 CNS
# [22] = system: MOLT-4 leukemia
# [23] = system: HCT-15 colon
# [24] = system: SF-295 CNS
# [25] = system: BT-549 breast
# [26] = system: UACC-62 melanoma
# [27] = system: SW-620 colon
# [28] = system: PC-3 prostate
# [29] = system: UO-31 renal
# [30] = system: KM12 colon
# [31] = system: HCT-116 colon
# [32] = system: A498 renal
# [33] = system: OVCAR-8 ovarian
# [34] = system: OVCAR-4 ovarian
# [35] = system: HOP-92 NSCLC
# [36] = system: SF-268 CNS
# [37] = system: 786-0 renal
# [38] = system: SK-MEL-5 melanoma
# [39] = system: MDA-MB-435
# [40] = system: MCF7 breast
# [41] = system: NCI-H23 lung
# [42] = system: HT29 colon
# [43] = system: SN12C renal
# [44] = system: ACHN renal
# [45] = system: CCRF-CEM leukemia
# [46] = system: NCI-H460 lung
# [47] = system: LOX IMVI melanoma
# [48] = system: NCI-H226 lung
# [49] = system: K-562 leukemia
# [50] = system: HOP-62 NSCLC
# [51] = system: NCI-H522 lung
# [52] = system: U251 CNS
# [53] = system: SK-OV-3 ovarian
# [54] = system: OVCAR-5 ovarian
# [55] = system: A549 NSCLC
# [56] = system: HL-60(TB) leukemia
# [57] = system: SR leukemia
# [58] = system: NCI/ADR-RES ovarian
compound,measurement,setting,value
O=C(NN1C(=O)CSC12CCCC2)C(O)c1ccccc1 (stereo not given),GI50,[1],> 100 µM
same,TGI,[1],> 100 µM
same,GI50,[2],> 100 µM
same,TGI,[2],> 100 µM
same,GI50,[3],> 100 µM
same,TGI,[3],> 100 µM
same,GI50,[4],> 100 µM
same,TGI,[4],> 100 µM
same,GI50,[5],> 100 µM
same,TGI,[5],> 100 µM
same,GI50,[6],> 100 µM
same,TGI,[6],> 100 µM
same,GI50,[7],> 100 µM
same,TGI,[7],> 100 µM
same,GI50,[8],> 100 µM
same,TGI,[8],> 100 µM
same,GI50,[9],> 100 µM
same,TGI,[9],> 100 µM
same,GI50,[10],> 100 µM
same,TGI,[10],> 100 µM
same,GI50,[11],> 100 µM
same,TGI,[11],> 100 µM
same,GI50,[12],> 100 µM
same,TGI,[12],> 100 µM
same,GI50,[13],> 100 µM
same,TGI,[13],> 100 µM
same,GI50,[14],> 100 µM
same,TGI,[14],> 100 µM
same,GI50,[15],> 100 µM
same,TGI,[15],> 100 µM
same,GI50,[16],> 100 µM
same,TGI,[16],> 100 µM
same,GI50,[17],> 100 µM
same,TGI,[17],> 100 µM
same,GI50,[18],> 100 µM
same,TGI,[18],> 100 µM
same,GI50,[19],> 100 µM
same,TGI,[19],> 100 µM
same,GI50,[20],> 100 µM
same,TGI,[20],> 100 µM
same,GI50,[21],> 100 µM
same,TGI,[21],> 100 µM
same,GI50,[22],> 100 µM
same,TGI,[22],> 100 µM
same,GI50,[23],> 100 µM
same,TGI,[23],> 100 µM
same,GI50,[24],> 100 µM
same,TGI,[24],> 100 µM
same,GI50,[25],> 100 µM
same,TGI,[25],> 100 µM
same,GI50,[26],> 100 µM
same,TGI,[26],> 100 µM
same,GI50,[27],> 100 µM
same,TGI,[27],> 100 µM
same,GI50,[28],> 100 µM
same,TGI,[28],> 100 µM
same,GI50,[29],> 100 µM
same,TGI,[29],> 100 µM
same,GI50,[30],> 100 µM
same,TGI,[30],> 100 µM
same,GI50,[31],> 100 µM
same,TGI,[31],> 100 µM
same,GI50,[32],> 100 µM
same,TGI,[32],> 100 µM
same,GI50,[33],> 100 µM
same,TGI,[33],> 100 µM
same,GI50,[34],> 100 µM
same,TGI,[34],> 100 µM
same,GI50,[35],> 100 µM
same,TGI,[35],> 100 µM
same,GI50,[36],> 100 µM
same,TGI,[36],> 100 µM
same,GI50,[37],> 100 µM
same,TGI,[37],> 100 µM
same,GI50,[38],> 100 µM
same,TGI,[38],> 100 µM
same,GI50,[39],> 100 µM
same,TGI,[39],> 100 µM
same,GI50,[40],> 100 µM
same,TGI,[40],> 100 µM
same,GI50,[41],> 100 µM
same,TGI,[41],> 100 µM
same,GI50,[42],> 100 µM
same,TGI,[42],> 100 µM
same,GI50,[43],> 100 µM
same,TGI,[43],> 100 µM
same,GI50,[44],> 100 µM
same,TGI,[44],> 100 µM
same,GI50,[45],> 100 µM
same,TGI,[45],> 100 µM
same,GI50,[46],> 100 µM
same,TGI,[46],> 100 µM
same,GI50,[47],> 100 µM
same,TGI,[47],> 100 µM
same,GI50,[48],> 100 µM
same,TGI,[48],> 100 µM
same,GI50,[49],> 100 µM
same,TGI,[49],> 100 µM
same,GI50,[50],> 100 µM
same,TGI,[50],> 100 µM
same,GI50,[51],> 100 µM
same,TGI,[51],> 100 µM
same,GI50,[52],> 100 µM
same,TGI,[52],> 100 µM
same,GI50,[53],> 100 µM
same,TGI,[53],> 100 µM
same,GI50,[54],> 100 µM
same,TGI,[54],> 100 µM
same,GI50,[55],> 100 µM
same,TGI,[55],> 100 µM
C/C=C(/C)C(=O)OC1C=C(CO)C(=O)C(OC(=O)C(C)(O)C(C)Cl)C1C(C)C (stereo not given),GI50,[1],0.474 µM
same,TGI,[1],1.85 µM
same,GI50,[2],1.79 µM
same,TGI,[2],3.35 µM
same,GI50,[3],4.78 µM
same,TGI,[3],24.4 µM
same,GI50,[5],1.6 µM
same,TGI,[5],3.5 µM
same,GI50,[6],2.19 µM
same,TGI,[6],4.9 µM
same,GI50,[7],0.429 µM
same,TGI,[7],2.65 µM
same,GI50,[9],1.3 µM
same,TGI,[9],2.85 µM
same,GI50,[11],0.758 µM
same,TGI,[11],2.26 µM
same,GI50,[12],1.55 µM
same,TGI,[12],3.05 µM
same,GI50,[13],1.46 µM
same,TGI,[13],2.98 µM
same,GI50,[14],1.48 µM
same,TGI,[14],2.91 µM
same,GI50,[15],1.42 µM
same,TGI,[15],3.32 µM
same,GI50,[16],1.61 µM
same,TGI,[16],2.98 µM
same,GI50,[56],0.358 µM
same,TGI,[56],5.74 µM
same,GI50,[17],2.06 µM
same,TGI,[17],4.29 µM
same,GI50,[18],1.13 µM
same,TGI,[18],2.4 µM
same,GI50,[19],0.648 µM
same,TGI,[19],1.98 µM
same,GI50,[20],1.6 µM
same,TGI,[20],3.13 µM
same,GI50,[57],0.255 µM
same,TGI,[57],2.16 µM
same,GI50,[21],1.28 µM
same,TGI,[21],2.62 µM
same,GI50,[22],0.301 µM
same,TGI,[22],4.88 µM
same,GI50,[23],0.772 µM
same,TGI,[23],2.36 µM
same,GI50,[24],1.94 µM
same,TGI,[24],4.79 µM
same,GI50,[25],1.95 µM
same,TGI,[25],4.71 µM
same,GI50,[26],0.744 µM
same,TGI,[26],2.05 µM
same,GI50,[27],1.69 µM
same,TGI,[27],4.08 µM
same,GI50,[28],1.45 µM
same,TGI,[28],3.3 µM
same,GI50,[29],1.34 µM
same,TGI,[29],2.64 µM
same,GI50,[30],1.75 µM
same,TGI,[30],3.47 µM
same,GI50,[31],1.07 µM
same,TGI,[31],2.49 µM
same,GI50,[32],1.9 µM
same,TGI,[32],3.87 µM
same,GI50,[33],1.56 µM
same,TGI,[33],5.3 µM
same,GI50,[34],1.87 µM
same,TGI,[34],3.95 µM
same,GI50,[35],1.77 µM
same,TGI,[35],3.57 µM
same,GI50,[36],2.19 µM
same,TGI,[36],5.08 µM
same,GI50,[37],1.67 µM
same,TGI,[37],3.12 µM
same,GI50,[38],1.38 µM
same,TGI,[38],2.75 µM
same,GI50,[39],1.35 µM
same,TGI,[39],2.83 µM
same,GI50,[40],0.552 µM
same,TGI,[40],3.09 µM
same,GI50,[41],1.84 µM
same,TGI,[41],4.42 µM
same,GI50,[42],1.47 µM
same,TGI,[42],3.56 µM
same,GI50,[43],0.731 µM
same,TGI,[43],2.11 µM
same,GI50,[44],0.829 µM
same,TGI,[44],2.06 µM
same,GI50,[45],0.327 µM
same,TGI,[45],2.05 µM
same,GI50,[46],2.28 µM
same,TGI,[46],8.62 µM
same,GI50,[47],1.31 µM
same,TGI,[47],2.82 µM
same,GI50,[48],3.72 µM
same,TGI,[48],13 µM
same,GI50,[58],2.31 µM
same,TGI,[58],13.3 µM
same,GI50,[49],0.396 µM
same,TGI,[49],12.5 µM
same,GI50,[50],2.1 µM
same,TGI,[50],4.89 µM
same,GI50,[51],0.603 µM
same,TGI,[51],2.37 µM
same,GI50,[52],1.38 µM
same,TGI,[52],2.8 µM
same,GI50,[53],4.5 µM
same,TGI,[53],14.9 µM
same,GI50,[54],0.971 µM
same,TGI,[54],2.72 µM
same,GI50,[55],2.81 µM
same,TGI,[55],9.36 µM
